Assays:
[1] = test system: 66 c1.4 GFP murine mammary tumor cells; test: TUNEL assay for apoptosis in vivo in 66 c1.4-GFP tumor sections; parameters: species or system Balb/c mice; conditions: liposomal formulation by aerosol, vs control
Description: Deparaffinized sections (5 μm) of tumor tissue were used to assess apoptosis using reagents supplied in the ApopTag In Situ Apoptosis Detection kit (Intergen, Purchase, N.Y.) according to the manufacturer's instructions. Nuclei that stained brown were scored as positive for apoptosis and those that stained blue were scored as negative. At least sixteen 400× microscopic fields were scored per tumor. Data are presented as the mean±S.E. number of apoptotic cells counted in three separate tumors from each group. Pictures of tumor tissue were taken at 1000× magnification.

66 c1.4-GFP tumors [2] = test: CD31 immunohistochemistry of tumor blood vessel numbers; assay type: in vivo, Balb/c mice; conditions: liposomal formulation by aerosol, vs control
[3] = test system: 66 c1.4 GFP murine mammary tumor cells; test: Tumor growth of 66 c1.4-GFP mammary tumor cells in Balb/c mice (tumor volume); conditions: Example 18: liposomal formulation by aerosol, 75 mg in nebulizer/day
Description: 66 c1.4-GFP cells were harvested by trypsinization, centrifuged, resuspended in McCoy's media, containing no supplements at a density of 2×10^5/100 μl. Mice were injected in the inguinal area at a point equal distance between the 4th and 5th nipples on the right side using a 23 gauge needle.
50 mice were assigned (10 per group) to aerosol treatment, aerosol control, oral treatment, oral control, or to the no treatment group so that the average tumor volume for all groups were closely matched. […] Tumors were measured using calipers every other day, and volumes were calculated using the formula: volume (mm^3) [width (mm)^2×length (mm)]/2. Body weights were determined weekly.
Balb/c mice were injected with 200,000 66 c1.4 GFP cells subcutaneous in the mammary fat pad area between the 4th and 5th nipple on the right side of the body.
Mice are injected with 200,000 66 c1.4 GFP murine mammary tumor cells as described on day 0. Treatments are initiated on day 9 when tumors reached 1-3 mm in size. Aerosol treatments of α-TEA liposomes (5 mg α-TEA/mouse) are administered daily for 16 days (FIG. 8). Data represent the mean+/−Standard Error (SE), N=10 mice for control and treatment groups.
Balb/c mice were injected s.c. with 2×10^5 66 c1.4-GFP cells in the inguinal area between the 4th and 5th nipple on the right side of the body. When tumors reached 2×2-4×4 mm (9 days after tumor injection), mice were placed into 5 groups ((Group 1: untreated control, Group 2: liposome/aerosol control, Group 3: liposomal α-TEA aerosol treatment, Group 4: peanut oil/gavage control, Group 5: α-TEA in peanut oil/gavage treatment) of 10 mice/group) such that the mean tumor volume of each group was closely matched. Daily treatments were initiated on day 9 after tumor injection.
Balb/c mice were injected with 200,000 66 c1.4 GFP cells subcutaneous in the mammary fat pad area between the 4th and 5th nipple on the right side of the body. […] Animals were treated with α-TEA in liposome, vitamin E succinate in liposome, or control liposome alone via aerosol, 7 days per week, for 21 days. Animals were given 75 mg compound via nebulization per day such that each animal received 36 μg compound per day.
The size of the tumors, 9-21 days after injection of 200,000 66 c1.4 GFP cells between the 4th and 5th nipple on the right side of each mouse, is determined. Treatments are initiated on day 9 after tumor inoculation. Each group consists of n=10+/−SE. Gavage Treatment=Treatments of 5 mg of α-TEA in ethanol and peanut oil (0.1 ml volume) are administered daily starting on day 9 after tumor inoculation and continuing through day 21. Gavage Control=Mice received peanut oil and ethanol alone (0.1 ml volume)/daily, starting on day 9 after tumor inoculation and continuing through day 21. Data (tumor size) are depicted as the mean+/−standard error for days 9, 11, 13, 15, 17, 19, and 21.
Balb/c mice were injected with 200,000 66 c1.4 GFP cells subcutaneous in the mammary fat pad area between the 4th and 5th nipple on the right side of the body. […] Animals were treated with α-TEA in liposome vitamin E succinate in liposome, or control liposome alone via oral gavage, 2 times per day, 7 days per week, for 21 days. Animals were given a total of 6 mg compound per day.

66 c1.4-GFP tumors [4] = test: KI-67 immunohistochemistry of cell proliferation in tumors; assay type: in vivo, Balb/c mice; conditions: liposomal formulation by aerosol, vs control
[5] = after thirty minutes, intramuscular delivery; cited from earlier work
[6] = test system: 66 c1.4 GFP murine mammary tumor cells; test: Lung and lymph node metastases of 66 c1.4-GFP tumors in Balb/c mice; assay type: in vivo; conditions: Example 33: liposomal aerosol; α-TEA 5 mg/d, 9NC 2 μg/d in nebulizer; listed as Lip/9NC
Description: Metastastic lesions in the five lung lobes were counted visually at time of sacrifice. Fluorescent green micro-metastatic cancer cell colonies in the left lung lobe and lymph nodes were counted using a Nikon fluorescence microscope (TE-200) with a 20×objective (200× magnification) and Image-Pro Plus (version 4.1; Media Cybernetics, Silver Spring, Md.) software associated with the microscope. Fluorescent lesions were separated into three size grouping: <5 μm, 5-10 μm and >10 μm.
At sacrifice, lungs were taken, examined visually for metastatic lesions and frozen for analyses of micrometastases by fluorescence.
Use of a Nikon fluorescence microscope and Image-Pro Plus software permitted measurement of green fluorescing micrometastases into three size groupings of <5 μm, 5-10 μm and >10 μm.
At sacrifice, the left lung lobe of each mouse of flash frozen and saves for detection of GFP expressing micrometatstic lesions via fluorescent microscopy.

| Compound | % Enhanement of TUNEL positive apoptotic cells [1] [%] | % Reduction of CD31 tumor blood vessel numbers (66 c1.4-GFP tumors [2]) [%] | inhibition of tumor growth ([3]; day 15 of treatment) [%] | inhibition of tumor growth ([3]; day 17 of treatment) [%] | % Reduction of KI67 cell proliferation (66 c1.4-GFP tumors [4]) [%] | Levels of 9-nitrocamptothecin in the brain [5] | Inhibition (%) Metastases Lymphnode [6] [%] |
| --- | --- | --- | --- | --- | --- | --- | --- |
| Cc1c(C)c2c(c(C)c1O)CCC(C)(CCCC(C)CCCC(C)CCCC(C)C)O2 (racemic) [dl-α-tocopherol] | 44 | 51 | 81 | 73 | 33 | – | – |
| CC[C@@]1(O)C(=O)OCc2c1cc1n(c2=O)Cc2cc3c([N+](=O)[O-])cccc3nc2-1 [9-nitrocamptothecin, reference compound] | – | – | – | – | – | 0 | 60 |
